Laboratory results reported in patent US20240228460A1, “PROTEASE INHIBITORS AND METHODS OF MAKING SAME” (priority 2022, published 2024).
Where two headings read alike, the source gives them in different places.

Legend:
[1] = molecular target: SARS-CoV-2 M^pro protease (Severe acute respiratory syndrome coronavirus 2 (2019-nCoV) (SARS-CoV-2), UniProt P0DTD1); assay: Fluorogenic enzymatic assay, SARS-CoV-2 Mpro inhibition; format: biochemical; conditions: quenched DABCYL/EDANS peptide substrate
cathepsin L = cathepsin L (Homo sapiens (Human), UniProt P07711); assay: Cathepsin L inhibition assay (Z-LR-AMC fluorogenic substrate); format: biochemical
Description: Assays to evaluate the inhibition of cathepsin L contained 25 pM cathepsin L (RD systems: 952-CY-010), 5 uM Z-LR-AMC fluorogenic peptide substrate, 100 nL of test compound in 100% DMSO, in a total of 10 uL of 20 mM KPO4, pH 6.0, 150 mM NaCl, 0.005% Tween20, 5 mM DTT in black low volume 384-well plates. The production of AMC (7-amino-4-methylcoumarin) was followed at 5 min intervals at 355 nm excitation, 460 nm emission in an Envision microplate reader (PerkinElmer). Reaction rates were determined by linear regression of the resulting progress curves. Rates were normalized to % inhibition, where 0% is equal to the rate in the presence of enzyme, and 100% is equal to the rate in the absence of enzyme. Nonlinear regression fits of the data to a one-site dose response curve were performed using XLFit (IDBS). […]

SARS-CoV-2 M^pro = SARS-CoV-2 M^pro (Severe acute respiratory syndrome coronavirus 2 (2019-nCoV) (SARS-CoV-2), UniProt P0DTD1); assay: biochemical; conditions: 20 nM M^pro, 10 uM substrate, 1 hr, HPLC product peak area; read-out: IC50 against SARS-CoV-2 M^pro, HPLC-confirmed
[2] = 25 pM cathepsin L, 5 uM Z-LR-AMC, pH 6.0, read-out: IC50 Cathepsin L

Chain of cathepsin L (P07711 114-333): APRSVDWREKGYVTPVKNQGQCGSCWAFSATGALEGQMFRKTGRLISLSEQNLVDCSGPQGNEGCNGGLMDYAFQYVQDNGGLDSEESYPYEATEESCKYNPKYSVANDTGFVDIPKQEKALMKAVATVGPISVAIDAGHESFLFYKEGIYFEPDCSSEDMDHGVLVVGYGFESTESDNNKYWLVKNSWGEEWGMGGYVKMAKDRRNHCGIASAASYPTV

SMILES	IC50 [1]	IC50 (cathepsin L; [2])	IC50 (SARS-CoV-2 M^pro)	IC50 (cathepsin L; positive control tested in parallel, read-out: IC50 cathepsin L (positive control))
Cc1cc[nH]c(=O)c1C(=O)NCC(NC(=O)c1cncc2ccccc12)c1ccc2ccccc2c1 (racemic) [(101), N-{2-[(2-hydroxy-4-methylpyridin-3-yl)formamido]-1-(naphthalen-2-yl)ethyl}isoquinoline-4-carboxamide]	1.7 µM	> 100 µM	5.4 µM	
Cc1cc[nH]c(=O)c1C(=O)NC[C@H](NC(=O)c1cncc2ccccc12)c1ccc2ccccc2c1 (single isomer, unassigned) [(102)]	1.6 µM	47.8 µM		
Cc1cc[nH]c(=O)c1C(=O)NC[C@H](NC(=O)c1cncc2ccccc12)c1ccc2ccccc2c1 (single isomer, unassigned) [(103)]	71.2 µM	36.8 µM		
Cc1cc(C(=O)NC(CNC(=O)c2cccc3sncc23)c2ccc3ccccc3c2)cc(=O)[nH]1 (stereo not drawn) [(104)]	47.8 µM			
O=C(NCC(NC(=O)c1cncc2sccc12)c1ccc2ccccc2c1)c1cc(O)cc(O)c1 (stereo not drawn) [(105)]	61.3 µM			
O=C(NCC(NC(=O)C1COc2ccccc21)c1ccccc1)c1cccc2cnsc12 (stereo not drawn) [(106)]	8.9 µM	10.2 µM	28 µM	
O=C(NCC(NC(=O)c1cncc2[nH]ccc12)c1ccc2ccccc2c1)c1ccsc1 (stereo not drawn) [(107)]	19.2 µM			
CC(=O)c1c(C)[nH]c(C(=O)N[C@H](CNC(=O)c2ccc(F)c3ccccc23)c2ccccc2)c1C [(108), (S)-4-acetyl-N-(2-(4-fluoro-1-naphthamido)-1-phenylethyl)-3,5-dimethyl-1H-pyrrole-2-carboxamide]	32.2 µM			
CC(C)C[C@H](NC(=O)OCc1ccccc1)C(=O)N[C@@H](CC1CCNC1=O)C(O)S(=O)(=O)O (stereo partly drawn) [GC-376, reference compound]				0.002 µM
